In patent publication US20110281369A1 (Board of Governors for Higher Education, State of Rhode …, priority 2006, published 2011):
Several values for one entry are separate records, joined by “and”; a condition that tells them apart may be missing. Equal entries are not always repeated.

Experiments:
[1] = Total and unbound MPA and metabolite concentrations in plasma of kidney transplant recipients (HPLC-UV; ultrafiltration followed by LC-MS/MS); type: in vivo, human; details: 29 kidney transplant recipients
Description: (§1) Patients were receiving 1000-2000 mg/day mycophenolate mofetil (Cellcept® Roche Laboratories). Unstimulated saliva samples were collected by passive drool into a plastic cup within a 5-min period of blood collection and stored at −80° C. until analysis. The patients remained fasted for the first 2 hours of sampling but then were allowed standard hospital meals.
(§2) Given the fact that the possibility of blood leakage in saliva is high at morning trough (FIG. 3), have collected 144 additional saliva samples obtained during another pharmacokinetic study. Therefore the data represented in the next section were obtained from 29 kidney transplant recipients throughout a 12-hour dosing interval.

[2] = MPA concentration in saliva of kidney transplant recipients by LC-MS/MS; type: in vivo, human
Description: Indomethacin (INDO, Alfa Aesar) was used as the internal standard. All reagents and solvents were high performance liquid chromatography (HPLC) grade. […] Calibrators and Quality Control standards (QCs) were prepared using pooled unstimulated whole saliva collected from at least six healthy volunteers (IRB Approval#HU0203-120). […] All calibrators and QCs were aliquoted into 2 mL cryovials and maintained at −20° C. until use.
Extraction of MPA from saliva was carried out by protein precipitation. Calibrators, QC's or patient samples were thawed in a shaking water bath at 37° C. for 5 min. The samples were then sonicated for 10 seconds and 100 μL was pipetted into a microcentrifuge tube, followed by the subsequent additions 50 μL methanol containing INDO (500 μg/L) and […] acetonitrile. The tubes were vortex mixed for 90 seconds and centrifuged at 16,000 g for 5 min. The supernatants were carefully aspirated into glass culture tubes and dried at 50° C. in a centrifugal evaporator (Thermosavant Holbrook, N.Y.) after which they were reconstituted with 100 μL of 85:15% v/v of methanol and 0.05% formic acid in de-ionized water and a 20 μL aliquot was injected onto the column.
Analytical column was Zorbax Rx C8 (150 mm×4.6 mm, 5 μm) from Agilent Technologies (Palo Alto, Calif.) and mobile phase was a gradient mixture of methanol and deionized water containing 0.05% formic acid. […] For this, a combined mixture of the analytes (1 mg/L each) in mobile phase was infused continuously onto the mass spectrometer and the residues extracted from blank saliva were injected simultaneously via a three way T-valve. In accordance with further embodiments, the ionization technique may involve any of photoionization, electrospray ionization, atmospheric pressure chemical ionization, electron capture ionization or selective ion monitoring, and may be performed in positive mode or negative mode.
as §1, §2

[3] = Stability of MPA in saliva based quality control standards (freeze-thaw, short term, autosampler); type: physicochemical; details: for Short term stability: bench top 5 hours at room temperature; for Short term stability / Freeze-thaw stability / Autosampler stability: n=3, mean ± SD, in % (unit assumed); for Freeze-thaw stability: three cycles of freezing at −20° C. and thawing at room temperature; for Autosampler stability: dried and reconstituted extracts 14-hours in autosampler
Description: The lower limit of quantification (LLOQ) and limit of detection (LOD) were defined at a signal to noise ratio of 5:1 and 3:1, respectively. The recovery of the extraction procedure was done by comparing the peak areas obtained from an extracted saliva based standard of MIPA or INDO with the peak areas of these analytes in methanol. To evaluate intraday coefficient of variation (CV %) of the assay, QCs were analyzed six times on the same day. Interday CV % and accuracy was evaluated by measuring the QC concentrations over 10 days using a separate calibration curve for each set. […] For short term stability studies, samples were kept on the bench top for 5 hours at room temperature and for freeze-thaw stability studies, samples were subjected to three cycles of freezing at −20° C. and thawing unassisted at room temperature. To evaluate autosampler stability, dried and reconstituted extracts were kept in the autosampler for 14-hours and then analyzed.

[4] = Stock solution stability of methanolic stock solutions at room temperature; type: physicochemical; details: 8 hours, against freshly prepared samples
[5] = cited from earlier work
[6] = 29 kidney transplant recipients, N=243
[7] = 29 kidney transplant recipients, N=246

Compound: COc1c(C)c2c(c(O[C@@H]3O[C@H](C(=O)O)[C@@H](O)[C@H](O)[C@H]3O)c1C/C=C(\C)CCC(=O)O)C(=O)OC2 [MPAG, MPA-glucuronide]
- MPAG conc, Mean ± SD ([1]; plasma, N=244): 51.8 ± 31.6 mg/L
- MPAG conc, Median ([1]; plasma, N=244): 43.8 mg/L
- MPAG conc, Min-Max ([1]; plasma, N=244): 10.6 to 180.5 mg/L

Compound: COc1c(C)c2c(c(O)c1C/C=C(\C)CCC(=O)O[C@@H]1O[C@H](C(=O)O)[C@@H](O)[C@H](O)[C@H]1O)C(=O)OC2 [AcMPAG, Acyl-MPAG]
- Presence of AcMPAG peak in patient saliva ([2]; saliva of kidney transplant recipients, LC-MS/MS chromatogram): no AcMPAG peak was observed
- AcMPAG conc, Mean ± SD ([1]; plasma, N=244): 1.8 ± 1.4 mg/L
- AcMPAG conc, Median ([1]; plasma, N=244): 1.5 mg/L
- AcMPAG conc, Min-Max ([1]; plasma, N=244): 0.4 to 8.5 mg/L

Compound: COc1c(C)c2c(c(O)c1C/C=C(\C)CCC(=O)O)C(=O)OC2 [MPA, Mycophenolic acid]
- Salivary concentration of MPA before administration of Cellcept morning dose (morning trough) ([2]; 11 kidney transplant recipients, morning trough): 79.8 ± 63.7 µg/L
- Saliva concentration of MPA, range ([2]; 11 kidney transplant recipients, n=100 samples, 12-hour dosing interval): 2.6 to 2204 µg/L and 2.6 to 220.4 µg/L
- Saliva concentration of MPA, Mean±SD ([2]; 11 kidney transplant recipients, n=100 samples, 12-hour dosing interval, 1000-2000 mg/day mycophenolate mofetil): 31.4 ± 32.3 µg/L
- Average deviation between saliva and unbound plasma concentrations ([2]; 29 kidney transplant recipients, 244 saliva samples): 0.49 ng/mL
- Deviation between saliva and unbound conc, Mean ± SD (average deviation) [2, 6]: 0.49 µg/L and 0.49 ± 44.25 µg/L
- Deviation between saliva and unbound conc, Median [2, 6]: 1.89 µg/L
- Deviation between saliva and unbound conc, Min-Max [2, 6]: -208.10 to 264.54 µg/L
- Saliva MPA conc, Mean ± SD [2, 7]: 28.3 ± 32.3 µg/L
- Saliva MPA conc, Median [2, 7]: 18.1 µg/L
- Saliva MPA conc, Min-Max [2, 7]: 1.4 to 283.9 µg/L
- Saliva MPA compared with unbound plasma concentration ([2]; two hours post dose, absorption phase): considerably lower
- Unbound MPA conc, Mean ± SD ([1]; plasma ultrafiltrate, N=243): 27.9 ± 36.6 µg/L
- Unbound MPA conc, Median ([1]; plasma ultrafiltrate, N=243): 14.5 µg/L
- Unbound MPA conc, Min-Max ([1]; plasma ultrafiltrate, N=243): 1.8 to 267.0 µg/L
- Total MPA conc, Median ([1]; plasma, N=244): 2.3 mg/L
- Total MPA conc, Min-Max ([1]; plasma, N=244): 0.3 to 38.5 mg/L
- Total MPA conc, Mean ± SD ([1]; plasma, N=244, 12-hour dosing interval): 3.7 ± 4.7 mg/L
- Short term stability ([3]; 10 μg/L MPA in saliva): 106.0 ± 3.6
- Freeze-thaw stability ([3]; 10 μg/L MPA in saliva): 103.6 ± 7.1
- Autosampler stability ([3]; 10 μg/L MPA): 95.0 ± 6.6
- Short term stability ([3]; 600 μg/L MPA in saliva): 98.7 ± 2.7
- Freeze-thaw stability ([3]; 600 μg/L MPA in saliva): 98.9 ± 1.1
- Autosampler stability ([3]; 600 μg/L MPA): 98.2 ± 0.6
- Stability in saliva based standards (in words) ([3]; under the experimental condition described): stable
- Loss of analyte at room temperature from methanolic stock solution [4]: 0.6%
- pKa [5]: 4.5

Compound: COc1ccc2c(c1)c(CC(=O)O)c(C)n2C(=O)c1ccc(Cl)cc1 [INDO, Indomethacin]
- Loss of analyte at room temperature from methanolic stock solution [4]: 10%
